Like-named read-outs stand apart in the source and are kept apart here.
What was measured:
[1] = system: spermidine-spermine N^1-acetyltransferase (SSAT); test: SSAT enzyme activity in clone H-10 cells ±Dox treated with DENSPM; format: cell-based, human; conditions: for increase in SSAT activity: 10 μM DENSPM; for DENSPM-induced SSAT activity: cells transfected with human SSAT cDNA; for SSAT Activity / SSAT Effects: Activity (fold): 48 h; for SSAT Activity: relative to closed untreated = 1; for SSAT Effects: Activity (fold): DENSPM 10 μM
Protocol: (§1) A MCF-7 breast carcinoma cell line stably transfected with a tetracycline-off transfection system was purchased from Clontech Laboratories Inc. (Palo Alto, Calif.). The cells were cultured in Dulbecco's Modified Eagle's Medium (DMEM; Life Technologies, Gaithersburg, Md.), supplemented with 2 mM glutamine, 10% fetal bovine serum, penicillin at 100 U/ml, streptomycin at 100 U/ml and the antibiotic G418 (Life Technologies) at 100 μg/ml at 37° C. in the presence of 5% CO2.Cells were harvested by trypsinization and counted electronically (Coulter Model ZM, Coulter Electronics, Hialeah, Fla.). During treatment with polyamines or analogs, 1 mM aminoguanidine was routinely included in the media to prevent enzymatic oxidation to toxic products.
(§2) Total RNA was extracted with guanidine isothiocyanate and purified by the commonly used cesium chloride gradient centrifugation. Human SSAT cDNA probe (Xiao et al, 1991, supra) was used in Northern blot analyses. ODC and SSAT enzyme activities were assayed as reported earlier (Kramer et al., 1995, J. Biol. Chem. 270, 2124-2132.31). Polyamines, their acetylated derivatives and the polyamine analog DENSPM were measured by high performance liquid chromatography as previously described in detail by Kramer et al. (Kramer et al., 1993, supra), which method is incorporated herein by reference.
(§3) To enhance the growth inhibitory effects of DENSPM, and to more definitively examine the relationship between SSAT overexpression and cell growth, a cell line was developed in which SSAT expression is conditionally regulated by doxycycline (DOX) an analog of tetracycline which penetrates cells more effectively. MCF-7 cells containing the pTet-Off plasmid were transfected with the PTRE/expression plasmids described above using the Lipofectin method (Notarangelo et al., 1997, Focus, 19, 58-59, incorporated herein by reference). To facilitate clone selection, cells were co-transfected with a pTK-Hyg vector (Clontech Laboratories, Inc.). Transfected clones resistant to […] hygromycin were selected and tested for SSAT enzyme activity and/or mRNA in the presence or absence of 200 ng/ml Dox [+Dox and −Dox, respectively (Clontech Laboratories, Inc)]. In the presence of Dox, SSAT transcription is closed; in the absence of Dox, SSAT transcription is open. […] Clones, which expressed the lowest basal levels of SSAT activity or mRNA in +Dox and the greatest induced level of SSAT activity or mRNA −Dox, were selected for further study. Clones were maintained continuously under +Dox conditions until experiments were initiated.
(§4) In this table are presented the effects of conditional overexpression on DENSPM induced SSAT mRNA and activity and on polyamine pool depletion. When exposed to 10 μM DENSPM for 24 h, MRNA levels increased by 4-fold in induced cells and remained at ^˜20-fold in uninduced cells. Presumably, some rate-limiting step prevented DENSPM from increasing MRNA beyond the already high levels in these cells.

[2] = system: spermidine-spermine N^1-acetyltransferase (SSAT); conditions: in many tumor cells; cited from earlier work
[3] = system: Polyamine pools in H-10 cells; test: Polyamine pools by HPLC in H-10 cells ±Dox treated with DENSPM; format: cell-based, human; conditions: for Polyamine Pools: AcSpd / Polyamine Pools: AcSpm / Polyamine Pools: Put / Polyamine Pools: Spd / Polyamine Pools: Spm: 48 h
Protocol: as §1, §2, §4

[4] = system: MCF-7/hSc clone H-10 cells; test: Growth inhibition and dose-response of clone H-10 cells (MCF-7/hSc) ±Dox by DENSPM; format: cell-based, human; conditions: for growth inhibition: by 48 h; for Growth Effects: Onset of cytotoxicity: DENSPM 10 μM
Protocol: as §1
(§5) Relative growth inhibition by DENSPM. The relative antiproliferative effect exerted by DENSPM in H-10 and M-3 cells grown ±Dox was studied over an extended (8 d) time period. As shown in the FIG. 9, H-10-Dox cells were strikingly more sensitive to the antiproliferative action of the DENSPM than +Dox cells. Less than 15% growth inhibition was achieved by 48 h in +Dox H-10 cells compared to >80% in −Dox cells (FIG. 9). […] As a generality, DENSPM-mediated growth inhibition tended to be more cytotoxic during SSAT induction as indicated by the rapid loss in cell number (FIG. 9).
The increased sensitivity of SSAT induced H-10 cells to DENSPM was quantitated by dose-response analysis. Cells were grown for 48 h ±Dox and then exposed to increasing concentrations of DENSPM for 48 h (FIG. 10). In the IC50 comparisons, −Dox cells were about approximately 100-fold more sensitive to DENSPM than +Dox cells (i.e. comparing IC50 values of 0.2 and 20 μM, respectively).

SSAT mRNA = test: Northern blot analysis of SSAT mRNA in clone H-10 cells ±Dox treated with DENSPM; format: cell-based, human; conditions: for SSAT mRNA / SSAT Effects: mRNA (fold): 48 h; for SSAT mRNA: relative to closed untreated = 1; for SSAT Effects: mRNA (fold): DENSPM 10 μM
Protocol: as §1, §2, §3, §4

[5] = system: MCF-7/mSg clone M-3 cells; test: Growth inhibition of clone M-3 cells (MCF-7/mSg) ±Dox by DENSPM; format: cell-based, human
Protocol: as §1, §5

[6] = system: ornithine decarboxylase (ODC); test: ODC enzyme activity in H-10 cells treated with DENSPM; format: cell-based, human; conditions: both +Dox and -Dox cells, irrespective of SSAT induction
Protocol: as §1
as §2, with “reference. […]” for “reference.”

Compound: CCNCCCNCCCNCCCNCC [DENSPM, N^1, N^11diethylnorspermine]
- increase in SSAT activity ([1]; +Dox cells): > 80 fold
- DENSPM-induced SSAT activity ([1]; +Dox conditions (closed)): ~90 fold
- increase in SSAT activity ([1]; -Dox cells): > 1500 fold
- DENSPM-induced SSAT activity ([1]; -Dox conditions (open)): 1700 fold
- SSAT Activity ([1]; Closed (+Dox) +DENSPM): 89 X
- SSAT Effects: Activity (fold) ([1]; Closed (Dox 200 ng/ml)): 89X fold
- SSAT Activity ([1]; Open (-Dox) +DENSPM): 1,700 X
- SSAT Effects: Activity (fold) ([1]; Open (no Dox)): 1700X fold
- difference in SSAT activity with DENSPM treatment, open vs closed ([1]; from Table 3): about 20 fold
- induction of SSAT activity [2]: exceed 1000 fold
- Polyamine Pools: AcSpd ([3]; Closed (+Dox) +DENSPM): 20 pmol/10^6 cells
- Polyamine Pools: AcSpm ([3]; Closed (+Dox) +DENSPM): 50 pmol/10^6 cells
- Polyamine Pools: Put ([3]; Closed (+Dox) +DENSPM): 50 pmol/10^6 cells
- Polyamine Pools: Spd ([3]; Closed (+Dox) +DENSPM): 110 pmol/10^6 cells
- Polyamine Pools: Spm ([3]; Closed (+Dox) +DENSPM): 750 pmol/10^6 cells
- Polyamine Pools: AcSpd ([3]; Open (-Dox) +DENSPM): <5 pmol/10^6 cells
- Polyamine Pools: AcSpm ([3]; Open (-Dox) +DENSPM): 20 pmol/10^6 cells
- Polyamine Pools: Put ([3]; Open (-Dox) +DENSPM): <5 pmol/10^6 cells
- Polyamine Pools: Spd ([3]; Open (-Dox) +DENSPM): <5 pmol/10^6 cells
- Polyamine Pools: Spm ([3]; Open (-Dox) +DENSPM): 65 pmol/10^6 cells
- depletion of all three polyamines ([3]; by 48 h, both +Dox and -Dox cells): near total depletion
- growth inhibition ([4]; +Dox H-10 cells): Less than 15%
- IC50 ([4]; +Dox H-10 cells, grown 48 h ±Dox, then DENSPM 48 h, read-out: IC50 of DENSPM (growth)): 20 µM
- growth inhibition ([4]; -Dox H-10 cells): > 80%
- IC50 ([4]; -Dox H-10 cells, grown 48 h ±Dox, then DENSPM 48 h, read-out: IC50 of DENSPM (growth)): 0.2 µM
- IC50 ([4]; Closed (Dox 200 ng/ml), 48 h, read-out: Growth Effects: IC50 Dose): 200 µM
- Growth Effects: Onset of cytotoxicity ([4]; Closed (Dox 200 ng/ml)): 4 days
- Growth Effects: Onset of cytotoxicity ([4]; Open (no Dox)): immediate
- SSAT mRNA levels increase (SSAT mRNA; 10 μM DENSPM for 24 h, 'induced cells' as printed): 4 fold
- SSAT mRNA levels (SSAT mRNA; 10 μM DENSPM for 24 h, 'uninduced cells' as printed): ~20 fold
- SSAT mRNA (SSAT mRNA; Closed (+Dox) +DENSPM): 8 X
- SSAT Effects: mRNA (fold) (SSAT mRNA; Closed (Dox 200 ng/ml)): 8X fold
- SSAT mRNA (SSAT mRNA; Open (-Dox) +DENSPM): 20 X
- SSAT Effects: mRNA (fold) (SSAT mRNA; Open (no Dox)): 20X fold
- growth inhibition ([5]; induced M-3 cells): 78%
- growth inhibition ([5]; uninduced M-3 cells): 25%
- effect on ODC activity [6]: suppressed ODC activity

Reference: patent publication US6413775B1, “Polyamine analog-activated SSAT gene therapy” (Health Research, Inc., priority 1999, dated 2002)
